Source: US20040013679A1, “LL-37 is an immunostimulant” (priority 2000, published 2004)
Marks after values point to notes of the source that are not given here.

Columns and labels:
[1] = test system: human peripheral blood monocytes; assay: Monocyte chemotaxis assay (48-well microchemotaxis chamber, incl. checkerboard analysis); assay type: cell-based; conditions: for Migrated monocytes (checkerboard analysis): monocytes 1 × 10^6/ml, Mean ± SD of triplicate wells
Method: A. The migration of monocytes (1×10^6 cells/ml) was assessed by chemotaxis assay using 5-μm uncoated membranes. Spontaneous cell migration (without LL-37) was 30-50 cells/HPF. The average C. I. (Mean ±SD) of triplicate wells is shown. *p<0.05 when compared with chemotaxis medium alone (open bar). […]
(§1) Human peripheral blood mononuclear cells (PBMC) were isolated from leukopacks (Courtesy of the Transfusion Medicine Department, NIH Clinic Center, Bethesda, MD) by routine Ficoll-Hypaque density gradient centrifugation. Monocytes were purified from human PBMC with the use of MACS CD14 monocyte isolation kit (Miltenyi Biotech Inc., Auburn, CA) according to the manufacturer's recommendation (12). Neutrophils were purified from the same leukopacks by 3% dextran sedimentation. T cells were purified from PBMC by the use of Human CD4 T Cell Enrichment Columns (R & D Systems, Minneapolis, MN) (12). The purity of neutrophils, monocytes, and T cells by FACScan analysis was more than 95%. Rat basophilic leukemia cells stably transfected with epitope-tagged formyl peptide receptor (ETFR cells) were generously provided by Drs. H. Ali and R. Snyderman (Duke University, Durham, NC), and maintained in the presence of 0.8 mg/ml of geneticin in DMEM supplemented with 10% FBS. Human embryonic kidney cells 293 stably transfected with FPRL1 (designated FPRL1/293 cells thereafter) were a gift of Drs. P. M. Murphy and J. L. Gao (NIAID, NIH, Bethesda, Md) and were maintained in the presence of 2 mg/ml of geneticin in DMEM supplemented with 10% FBS.
(§2) Migration of neutrophils, monocytes, T cells, and HEK293 or transfectant cells in response to chemotactic factors was assessed using a 48-well microchemotaxis chamber technique as previously described (17, 18). Chemotactic factors diluted in chemotaxis medium (CM, RPMI 1640 containing 1% BSA) were placed in the wells of the lower compartment of the chamber (Neuro Probe, Cabin John, […]), and cells suspended in CM were added to the upper compartment. The lower and upper compartments were separated by a polycarbonate membrane (Osmonics, Livermore, Calf.). After incubation at 37_C in humidified air with 5% CO2 for a period of time (60 min for neutrophils, 90 min for monocytes, 180 min for T cells, and 300 min for HEK293, ETFR, and FPRL1/293 cells), the membranes were removed, scraped, stained, and counted. The results are presented as number of cells per high power field (No./HPF) or as chemotactic index (C.I.).

[2] = test system: human peripheral blood monocytes; assay: Ca2+ mobilization assay in monocytes (Fura-2); assay type: cell-based; design: Ca2+ flux in freshly isolated monocytes at single concentration: dose or concentration left out as unconfirmed
Source text: as §1
(§3) Monocytes or FPRL1/293 cells (10^7 cells/ml in RPMI 1640 containing 10% FBS) were loaded by incubating with 5 μM Fura-2 (Molecular Probe) at 24_C for 30 minutes in the dark. Subsequently, the loaded cells were washed with and resuspended (10^6 cells/ml) in saline buffer (138 mM NaCl, 6 mM KC1, 1 mM CaCl2, 10 mM HEPES, 5 mM glucose, and 1% BSA, pH 7.4). Each 2 ml of loaded cells suspension was then transferred into a quartz cuvette, which was placed in a luminescence spectrometer LS50 B (Perkin-Elmer Limited, Beaconsfield, U.K). Ca^2+mobilization of the cells in response to chemotactic factors was measured by recording the ratio of fluorescence emitted at 510 nm after sequential excitation at 340 nm and 380 nm.

[3] = target: T1, FPRL1 (HEK293 cells stably transfected with FPRL1) (Homo sapiens, UniProt P25090); assay: Chemotaxis of FPRL1/293 cells; assay type: cell-based; conditions: FIG. 3A
T1 construct: expressed in transfected cells; gift of P. M. Murphy and J. L. Gao (NIAID, NIH)
T1 sequence (P25090 1-351): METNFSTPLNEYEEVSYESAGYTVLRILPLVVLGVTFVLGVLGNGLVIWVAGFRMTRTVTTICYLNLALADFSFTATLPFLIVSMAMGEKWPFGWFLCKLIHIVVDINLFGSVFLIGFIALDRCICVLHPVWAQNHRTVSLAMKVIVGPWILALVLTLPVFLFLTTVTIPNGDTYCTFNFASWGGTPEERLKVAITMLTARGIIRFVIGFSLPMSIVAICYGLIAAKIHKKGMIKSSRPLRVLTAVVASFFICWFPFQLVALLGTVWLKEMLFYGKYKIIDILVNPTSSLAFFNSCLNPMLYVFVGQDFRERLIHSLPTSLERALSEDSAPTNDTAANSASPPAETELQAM
Method: (§4) A. Selective induction of FPRL1/293 cell chemotaxis by LL-37. The migration of parental HEK293 (open bars), FPRL1/293 (dotted bars), or ETFR (closed bars) cells was assessed by chemotaxis assay with the use of collagen-coated 10-μm membranes. Cells were used at a concentration of 1×10^6 cells/ml. The average C. I. (Mean±SD) of triplicate wells is shown. Spontaneous cell migration (without LL-37) was 10-20 cells/HPF. *p<0.05 when compared with chemotaxis medium alone.
(§5) Human peripheral blood mononuclear cells (PBMC) were isolated from leukopacks (Courtesy of the Transfusion Medicine Department, NIH Clinic Center, Bethesda, MD) by routine Ficoll-Hypaque density gradient centrifugation. Monocytes were purified from human PBMC with the use of MACS CD14 monocyte isolation kit (Miltenyi Biotech Inc., Auburn, CA) according to the manufacturer's recommendation (12). […]
(§6) Migration of neutrophils, monocytes, T cells, and HEK293 or transfectant cells in response to chemotactic factors was assessed using a 48-well microchemotaxis chamber technique as previously described (17, 18). […] After incubation at 37_C in humidified air with 5% CO2 for a period of time (60 min for neutrophils, 90 min for monocytes, 180 min for T cells, and 300 min for HEK293, ETFR, and FPRL1/293 cells), the membranes were removed, scraped, stained, and counted. […]

parental HEK293 cells = assay: Chemotaxis of parental HEK293 cells; assay type: cell-based, human; conditions: FIG. 3A
Method: as §4, §2

[4] = target: T2, formyl peptide receptor (ETFR cells) (Homo sapiens, UniProt P21462); assay: Chemotaxis of ETFR cells; assay type: cell-based; conditions: FIG. 3A
T2 construct: expressed in transfected cells; provided by H. Ali and R. Snyderman (Duke University)
T2 sequence (P21462 1-350): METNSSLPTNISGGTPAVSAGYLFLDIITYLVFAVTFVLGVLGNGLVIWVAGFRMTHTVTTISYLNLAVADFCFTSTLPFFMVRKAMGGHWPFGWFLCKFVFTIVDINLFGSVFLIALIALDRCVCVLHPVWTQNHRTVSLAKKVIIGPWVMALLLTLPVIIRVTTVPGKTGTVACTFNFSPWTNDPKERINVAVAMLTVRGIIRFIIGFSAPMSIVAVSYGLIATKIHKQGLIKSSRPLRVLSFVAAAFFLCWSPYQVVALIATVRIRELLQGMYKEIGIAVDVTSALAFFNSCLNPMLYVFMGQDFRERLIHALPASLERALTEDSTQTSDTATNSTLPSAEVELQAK
Method: as §4, §5, §6

FPRL1 (FPRL1/293 cells) = target: T3, FPRL1 (FPRL1/293 cells) (Homo sapiens, UniProt P25090); assay: Ca2+ mobilization assay in FPRL1/293 cells; assay type: cell-based; conditions: FIG. 3B
T3 construct: expressed in transfected cells; gift of P. M. Murphy and J. L. Gao (NIAID, NIH)
T3 sequence (P25090 1-351): T1 sequence (P25090 1-351)
Source text: B. LL-37-induced Ca^2+ flux in FPRL1/293 cells. The arrow indicates the time point where LL-37 was applied to the cells.
as §5, with “(12). Neutrophils were purified from the same leukopacks by 3% dextran sedimentation. T cells were purified from PBMC by the use of Human CD4 T Cell Enrichment Columns (R & D Systems, Minneapolis, MN) (12). The purity of neutrophils, monocytes, and T cells by FACScan analysis was more than 95%.” for “(12).”
as §3, with “Subsequently, the loaded cells were washed with and resuspended (10^6 cells/ml) in saline buffer (138 mM NaCl, 6 mM KC1, 1 mM CaCl2, 10 mM HEPES, 5 mM glucose, and 1% BSA, pH 7.4).” left out

[5] = target: T2, formyl peptide receptor (ETFR cells); assay: Ca2+ flux in ETFR cells; assay type: cell-based
[6] = test system: human peripheral blood neutrophils; assay: Neutrophil chemotaxis assay; assay type: cell-based
Method: (§7) FIGS. 4A-B show the chemotaxis of human neutrophils (A) and CD4 T lymphocytes (B) in response to LL-37. The cell migration was assessed by chemotaxis assay with the use of uncoated (A) or fibronectin-coated (B) 5 μm membranes. The results are presented as the average C. I. (Mean±SD) of triplicate wells. *p<0.05 when compared with spontaneous cell migration (chemotactic medium alone). Neutrophils and CD4 T cells were used at a concentration of 1×10^6 cells/ml and 5×10^6 cells/ml, respectively. Spontaneous neutrophil and T cell migration (without LL-37) was 30-50 and 30-40 cells/HPF, respectively.
(§8) Human peripheral blood mononuclear cells (PBMC) were isolated from leukopacks (Courtesy of the Transfusion Medicine Department, NIH Clinic Center, Bethesda, MD) by routine Ficoll-Hypaque density gradient centrifugation. […]
as §6

human CD4 T cells = assay: CD4 T lymphocyte chemotaxis assay; assay type: cell-based
Method: as §7, §8, §6

immature dendritic cells [7] = assay: Chemotaxis of monocyte-derived immature dendritic cells; assay type: cell-based, human; conditions: monocytes differentiated into immature dendritic cells
immature dendritic cells [8] = assay: Ca2+ mobilization in monocyte-derived immature dendritic cells; assay type: cell-based, human; conditions: monocytes differentiated into immature dendritic cells
CCR2 = target: T4, CCR2 (Homo sapiens, UniProt P41597); assay: Examination of HEK293 cells stably transfected to express CCR2; assay type: cell-based
T4 construct: expressed in transfected cells
T4 sequence (P41597 whole entry): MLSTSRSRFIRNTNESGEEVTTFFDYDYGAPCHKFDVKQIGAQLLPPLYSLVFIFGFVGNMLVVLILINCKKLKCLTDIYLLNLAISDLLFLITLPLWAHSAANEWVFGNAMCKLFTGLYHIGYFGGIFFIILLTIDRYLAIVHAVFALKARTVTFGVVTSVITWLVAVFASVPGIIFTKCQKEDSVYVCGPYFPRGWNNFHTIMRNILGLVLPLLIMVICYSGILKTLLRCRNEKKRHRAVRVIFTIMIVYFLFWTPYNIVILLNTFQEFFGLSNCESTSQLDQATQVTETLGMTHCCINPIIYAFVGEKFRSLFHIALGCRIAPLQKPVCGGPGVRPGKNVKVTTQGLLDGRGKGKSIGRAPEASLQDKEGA
Source text: To mediate its chemotactic effect on monocytes, LL-37 must use a chemotactic receptor expressed by monocytes, but not by monocyte-derived immature dendritic cells.

[9] = 10% human AB serum; LL-37 at 10^−5 M; cited from earlier work
mammalian cells = conditions: cited from earlier work

LL-37: 37-residue mature antimicrobial peptide cleaved from hCAP18, human cathelicidin; synthesized by solid-phase Fmoc chemistry
LL-37-induced chemotaxis of monocytes in presence of serum ([1]; 10% human AB serum, FIG. 2B): not significantly inhibited | Migrated monocytes (checkerboard analysis) ([1]; LL-37 lower wells 0 μM, upper wells 1 μM): 45 ± 6 No./HPF | Migrated monocytes (checkerboard analysis) ([1]; LL-37 lower wells 0 μM, upper wells 10 μM): 44 ± 7 No./HPF | Migrated monocytes (checkerboard analysis) ([1]; LL-37 lower wells 1 μM, upper wells 0 μM): 135 ± 15** No./HPF | Migrated monocytes (checkerboard analysis) ([1]; LL-37 lower wells 1 μM, upper wells 1 μM): 50 ± 8 No./HPF | Migrated monocytes (checkerboard analysis) ([1]; LL-37 lower wells 1 μM, upper wells 10 μM): 40 ± 6 No./HPF | Migrated monocytes (checkerboard analysis) ([1]; LL-37 lower wells 10 μM, upper wells 0 μM): 495 ± 29** No./HPF | Migrated monocytes (checkerboard analysis) ([1]; LL-37 lower wells 10 μM, upper wells 1 μM): 265 ± 5** No./HPF | Migrated monocytes (checkerboard analysis) ([1]; LL-37 lower wells 10 μM, upper wells 10 μM): 95 ± 2* No./HPF | Optimal concentration for induction of monocyte migration ([1]; dose-dependent, FIG. 1A): 10^−5 M | Induction of Ca2+ flux in monocytes ([2]; FIG. 1B): dose-dependently induced Ca^2+ flux | Desensitization of Su peptide-induced Ca2+ flux in monocytes ([2]; Su peptide after LL-37 at 10^−5 M, FIG. 3C b): almost completely desensitized | Ca2+ flux in freshly isolated monocytes at single concentration ([2]; peptide, FIG. 3C a and c): induced Ca^2+ flux to a similar extent | Migration of FPRL1/293 cells [3]: migrated in response to LL-37 in a dose-dependent manner | Migration of parental HEK293 cells (parental HEK293 cells): did not respond | Migration of ETFR cells [4]: did not respond | Ca2+ flux in FPRL1/293 cells (FPRL1 (FPRL1/293 cells)): induced Ca^2+flux in a dose-dependent manner | Ca2+ flux in ETFR cells [5]: not in ETFR cells | Optimal concentration to chemoattract human leukocytes (neutrophils) ([6]; FIG. 4): 10^−5 M | Migration of purified neutrophils ([6]; FIG. 4A): induced dose-dependent migration | Optimal concentration to chemoattract human leukocytes (CD4 T cells) (human CD4 T cells; FIG. 4): 10^−5 M | Migration of CD4 T cells (human CD4 T cells; FIG. 4B): induced dose-dependent migration | Chemotaxis response of immature dendritic cells (immature dendritic cells [7]): could not respond | Ca2+ mobilization response of immature dendritic cells (immature dendritic cells [8]): could not respond | CCR2 as a receptor (CCR2-transfected HEK293 cells) (CCR2): CCR2 was not a receptor | Antimicrobial activity in presence of serum [9]: completely block | Concentration damaging mammalian cells (cytocidal effect) (mammalian cells): above 5×10^−5 M
